Drawing on patent US9499550B2 (BRISTOL-MYERS SQUIBB COMPANY, priority 2012, dated 2016), this text covers EC50 for 16 compounds.

Usually EC50 stands for the midpoint of the concentration-response curve.

For test [1], the system named is HCV genotype 1a (H77 strain) replicon in HUH-7 cells. In words: HCV replicon luciferase reporter assay, genotype 1a. It counts as cell-based. Conditions: Hepatitis C virus, Huh-7, 72 h, HCV genotype 1a replicon luciferase, 3 days incubation. The gist of the method: (§1)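 Replicon inhibition for both genotypes was measured as Renilla luciferase signal (EnduRen, 7.5 μM final, 2 h) after 3-day, 37° C exposure of replicon-bearing HUH-7 cells in 4% FCS DMEM, 0.5% DMSO. The 1b construct carries S1179I; the 1a H77 construct carries P1496L and S2204I. Twenty-point, 3-fold dilutions were fitted four-parametrically for EC50, and CC50 was taken from multiplexed Cell Titer-Blue.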
Background: Replicon systems follow genome replication, usually without infectious particles.

Test [2] relates to HCV genotype 1b (Con1) replicon in HUH-7 cells. Put plainly: HCV replicon luciferase reporter assay, genotype 1b. It counts as cell-based. To be noted: Hepatitis C virus, Huh-7, 72 h, HCV genotype 1b replicon luciferase, 3 days incubation. The gist of the method: as §1
Setting [3] is: GETYPE1A, read-out: LE_1a (EC50, range).
[4] abbreviates: GETYPE1B, read-out: LE_1b (EC50, range).

Molecules are shown by their SMILES. Like-named read-outs stand apart in the source and are kept apart here.

Turning to `CC[C@@H]1C[C@H](C)CC/C=C\[C@@H]2C[C@@]2(C(=O)NS(=O)(=O)C2CC2)NC(=O)[C@@H]2C[C@@H](Oc3nc4cc(OC)c(F)cc4nc3C(F)(F)F)CN2C(=O)[C@H]1NC(=O)OC(C)(C)C` [Compound 4266, tert-butyl ((2R,6S,7R,9R,13aS,14aR,16aS,Z)-14a-((cyclopropylsulfonyl)carbamoyl)-7-ethyl-2-((6-fluoro-7-methoxy-3-(trifluoromethyl)quinoxalin-2-yl)oxy)-9-methyl-5,16-dioxo-1,2,3,5,6,7,8,9,10,11,13a,14,14a,15,16,16a-hexadecahydrocyclopropa[e]pyrrolo[1,2-a][1,4]diazacyclopentadecin-6-yl)carbamate], the EC50 was 1.01 to 5 nM in test [1] (read-out: LE_1a (EC50, range)) and 1.01 to 5 nM in test [2] (read-out: LE_1b (EC50, range)).
Consider `CC[C@@H]1C[C@H](C)CC/C=C\[C@@H]2C[C@@]2(C(=O)NS(=O)(=O)C2CC2)NC(=O)[C@@H]2C[C@@H](Oc3nc4cc(OC)c(F)cc4nc3C(F)(F)F)CN2C(=O)[C@H]1NC(=O)OC(C)(C)C(F)(F)F` [Compound 4267], for which the EC50 in test [1] (setting [3]) was in the range of 5.01 to 35 nM; in test [2] (setting [4]), 1.01 to 5 nM.
For `CC[C@@H]1C[C@H](C)CC/C=C\[C@@H]2C[C@@]2(C(=O)NS(=O)(=O)C2(C)CC2)NC(=O)[C@@H]2C[C@@H](Oc3nc4cc(OC)c(F)cc4nc3C(F)(F)F)CN2C(=O)[C@H]1NC(=O)OC(C)(C)C(F)(F)F` [Compound 4268], the EC50 in test [1] (setting [3]) and in test [2] (setting [4]) was 1.01 to 5 nM in each case.
Regarding `CC[C@@H]1C[C@H](C)CC/C=C\[C@@H]2C[C@@]2(C(=O)NS(=O)(=O)C2(C)CC2)NC(=O)[C@@H]2C[C@@H](Oc3ncc(N(CC)CC)c4cc(OC)ccc34)CN2C(=O)[C@H]1NC(=O)OC(C)(C)C(F)(F)F` [Compound 4269], the EC50 in test [1] (setting [3]) and in test [2] (setting [4]) was 1.01 to 5 nM each time.
Regarding `CC[C@@H]1C[C@H](C)CC/C=C\[C@@H]2C[C@@]2(C(=O)NS(=O)(=O)C2CC2)NC(=O)[C@@H]2C[C@@H](Oc3nc4cc(OC)ccc4nc3Cl)CN2C(=O)[C@H]1NC(=O)OC(C)(C)C` [Compound 4270, tert-butyl ((2R,6S,7R,9R,13aS,14aR,16aS,Z)-2-((3-chloro-7-methoxyquinoxalin-2-yl)oxy)-14a-((cyclopropylsulfonyl)carbamoyl)-7-ethyl-9-methyl-5,16-dioxo-1,2,3,5,6,7,8,9,10,11,13a,14,14a,15,16,16a-hexadecahydrocyclopropa[e]pyrrolo[1,2-a][1,4]diazacyclopentadecin-6-yl)carbamate], the EC50 in test [1] (read-out: LE_1a (EC50, range)) lay within 1.01 to 5 nM; in test [2] (read-out: LE_1b (EC50, range)), 0.1 to 0.5 nM.
Regarding `CC[C@@H]1C[C@H](C)CC/C=C\[C@@H]2C[C@@]2(C(=O)NS(=O)(=O)C2CC2)NC(=O)[C@@H]2C[C@@H](Oc3nc4cc(OC)ccc4nc3Cl)CN2C(=O)[C@H]1NC(=O)OC(C)(C)C(F)(F)F` [Compound 4271], the EC50 in test [1] (setting [3]) is 1.01 to 5 nM; in test [2] (setting [4]), 0.1 to 0.5 nM.
Consider `CC[C@@H]1C[C@H](C)CC/C=C\[C@@H]2C[C@@]2(C(=O)NS(=O)(=O)C2CC2)NC(=O)[C@@H]2C[C@@H](Oc3nc4cc(OC)ccc4nc3C(C)C)CN2C(=O)[C@H]1NC(=O)OC(C)(C)C` [Compound 4272, tert-butyl ((2R,6S,7R,9R,13aS,14aR,16aS,Z)-14a-((cyclopropylsulfonyl)carbamoyl)-7-ethyl-2-((3-isopropyl-7-methoxyquinoxalin-2-yl)oxy)-9-methyl-5,16-dioxo-1,2,3,5,6,7,8,9,10,11,13a,14,14a,15,16,16a-hexadecahydrocyclopropa[e]pyrrolo[1,2-a][1,4]diazacyclopentadecin-6-yl)carbamate], for which the EC50 in test [1] (read-out: LE_1a (EC50, range)) lay within 5.01 to 35 nM; in test [2] (read-out: LE_1b (EC50, range)) it was 1.01 to 5 nM.
On to `CC[C@@H]1C[C@H](C)CC/C=C\[C@@H]2C[C@@]2(C(=O)NS(=O)(=O)C2CC2)NC(=O)[C@@H]2C[C@@H](Oc3nc4cc(OC)ccc4nc3C(C)C)CN2C(=O)[C@H]1NC(=O)OC(C)(C)C(F)(F)F` [Compound 4273], for which the concentration for a half-maximal effect (EC50) in test [1] (setting [3]) was 5.01 to 35 nM; in test [2] (setting [4]), 1.01 to 5 nM.
As for `CC[C@@H]1C[C@H](C)CC/C=C\[C@@H]2C[C@@]2(C(=O)NS(=O)(=O)C2(C)CC2)NC(=O)[C@@H]2C[C@@H](Oc3ncc(C(=O)O)c4cc(OC)ccc34)CN2C(=O)[C@H]1NC(=O)OC(C)(C)C(F)(F)F` [Compound 4276, 1-(((2R,6S,7R,9R,13aS,14aR,16aS,Z)-7-ethyl-9-methyl-14a-(((1-methylcyclopropyl)sulfonyl)carbamoyl)-5,16-dioxo-6-((((1,1,1-trifluoro-2-methylpropan-2-yl)oxy)carbonyl)amino)-1,2,3,5,6,7,8,9,10,11,13a,14,14a,15,16,16a-hexadecahydrocyclopropa[e]pyrrolo[1,2-a][1,4]diazacyclopentadecin-2-yl)oxy)-6-methoxyisoquinoline-4-carboxylic acid], the EC50 in test [1] (read-out: LE_1a (EC50, range)) was 35 to 620 nM; in test [2] (read-out: LE_1b (EC50, range)), 35 to 620 nM.
`CC[C@@H]1C[C@H](C)CC/C=C\[C@@H]2C[C@@]2(C(=O)NS(=O)(=O)C2(C)CC2)NC(=O)[C@@H]2C[C@@H](Oc3ncc(C(=O)O)c4cc(OC)ccc34)CN2C(=O)[C@H]1NC(=O)OC(C)(C)C` [Compound 4277, 1-(((2R,6S,7R,9R,13aS,14aR,16aS,Z)-6-((tert-butoxycarbonyl)amino)-7-ethyl-9-methyl-14a-(((1-methylcyclopropyl)sulfonyl)carbamoyl)-5,16-dioxo-1,2,3,5,6,7,8,9,10,11,13a,14,14a,15,16,16a-hexadecahydrocyclopropa[e]pyrrolo[1,2-a][1,4]diazacyclopentadecin-2-yl)oxy)-6-methoxyisoquinoline-4-carboxylic acid]: the EC50 in test [1] (read-out: LE_1a (EC50)) is no less than 1000 nM; in test [1] (read-out: LE_1a (EC50, range)), 35 to 620 nM; in test [2] (read-out: LE_1b (EC50)), 218 nM; in test [2] (read-out: LE_1b (EC50, range)) it was 35 to 620 nM.
In the case of `CC[C@@H]1C[C@H](C)CC/C=C\[C@@H]2C[C@@]2(C(=O)NS(=O)(=O)C2CC2)NC(=O)[C@@H]2C[C@@H](Oc3ncc(C(=O)O)c4cc(OC)ccc34)CN2C(=O)[C@H]1NC(=O)OC(C)(C)C` [Compound 4278, 1-(((2R,6S,7R,9R,13aS,14aR,16aS,Z)-6-((tert-butoxycarbonyl)amino)-14a-((cyclopropylsulfonyl)carbamoyl)-7-ethyl-9-methyl-5,16-dioxo-1,2,3,5,6,7,8,9,10,11,13a,14,14a,15,16,16a-hexadecahydrocyclopropa[e]pyrrolo[1,2-a][1,4]diazacyclopentadecin-2-yl)oxy)-6-methoxyisoquinoline-4-carboxylic acid], the EC50 in test [1] (read-out: LE_1a (EC50, range)) lay within 35 to 620 nM; in test [2] (read-out: LE_1b (EC50, range)), 35 to 620 nM.
For `CC[C@@H]1C[C@H](C)CC/C=C\[C@@H]2C[C@@]2(C(=O)NS(=O)(=O)C2CC2)NC(=O)[C@@H]2C[C@@H](Oc3ncc(C(=O)O)c4cc(OC)ccc34)CN2C(=O)[C@H]1NC(=O)OC(C)(C)C(F)(F)F` [Compound 4279, 1-(((2R,6S,7R,9R,13aS,14aR,16aS,Z)-14a-((cyclopropylsulfonyl)carbamoyl)-7-ethyl-9-methyl-5,16-dioxo-6-((((1,1,1-trifluoro-2-methylpropan-2-yl)oxy)carbonyl)amino)-1,2,3,5,6,7,8,9,10,11,13a,14,14a,15,16,16a-hexadecahydrocyclopropa[e]pyrrolo[1,2-1,2-a][1,4]diazacyclopentadecin-2-yl)oxy)-6-methoxyisoquinoline-4-carboxylic acid], the EC50 in test [1] (read-out: LE_1a (EC50, range)) is 35 to 620 nM; in test [2] (read-out: LE_1b (EC50, range)) it was 35 to 620 nM.
With `CC[C@@H]1C[C@H](C)CC/C=C\[C@@H]2C[C@@]2(C(=O)NS(=O)(=O)C2(C)CC2)NC(=O)[C@@H]2C[C@@H](Oc3ncc(OC)c4ccc(F)cc34)CN2C(=O)[C@H]1NC(=O)N1CCS(=O)(=O)CC1` [Compound 4283, N-((2R,6S,7R,9R,13aS,14aR,16aS,Z)-7-ethyl-2-((7-fluoro-4-methoxyisoquinolin-1-yl)oxy)-9-methyl-14a-(((1-methylcyclopropyl)sulfonyl)carbamoyl)-5,16-dioxo-1,2,3,5,6,7,8,9,10,11,13a,14,14a,15,16,16a-hexadecahydrocyclopropa[e]pyrrolo[1,2-a][1,4]diazacyclopentadecin-6-yl)thiomorpholine-4-carboxamide 1,1-dioxide], the EC50 in test [1] (read-out: LE_1a (EC50, range)) lay in the range of 5.01 to 35 nM; in test [2] (read-out: LE_1b (EC50, range)), 1.01 to 5 nM.
As to `CC[C@@H]1C[C@H](C)CC/C=C\[C@@H]2C[C@@]2(C(=O)NS(=O)(=O)C2(C)CC2)NC(=O)[C@@H]2C[C@@H](Oc3ncc(OC)c4ccc(F)cc34)CN2C(=O)[C@H]1NC(=O)N1CCOCC1` [Compound 4284, N-((2R,6S,7R,9R,13aS,14aR,16aS,Z)-7-ethyl-2-((7-fluoro-4-methoxyisoquinolin-1-yl)oxy)-9-methyl-14a-(((1-methylcyclopropyl)sulfonyl)carbamoyl)-5,16-dioxo-1,2,3,5,6,7,8,9,10,11,13a,14,14a,15,16,16a-hexadecahydrocyclopropa[e]pyrrolo[1,2-a][1,4]diazacyclopentadecin-6-yl)morpholine-4-carboxamide], the EC50 was 0.73 nM in test [1] (read-out: LE_1a (EC50)); 0.51 to 1 nM in test [1] (read-out: LE_1a (EC50, range)); 0.42 nM in test [2] (read-out: LE_1b (EC50)); 0.1 to 0.5 nM in test [2] (read-out: LE_1b (EC50, range)).
On to `COc1cc2nc(O[C@@H]3C[C@H]4C(=O)N[C@]5(C(=O)NS(=O)(=O)C6(C)CC6)C[C@H]5/C=C\CC[C@H](C)C[C@@H](C)[C@H](NC(=O)OC(C)(C)C(F)(F)F)C(=O)N4C3)c(C(F)(F)F)nc2cc1F` [Compound 4289], for which the EC50 fell in the range of 5.01 to 35 nM in test [1] (setting [3]) and 1.01 to 5 nM in test [2] (setting [4]).
As to `COc1cc2nc(O[C@@H]3C[C@H]4C(=O)N[C@]5(C(=O)NS(=O)(=O)C6(C)CC6)C[C@H]5/C=C\CC[C@@H](C)C[C@@H](C)[C@H](NC(=O)OC(C)(C)C(F)(F)F)C(=O)N4C3)c(C(F)(F)F)nc2cc1F` [Compound 4290], the EC50 in test [1] (setting [3]) is 1.01 to 5 nM; in test [2] (setting [4]), 0.51 to 1 nM.
